Assay results from patent US20070185077A1, “Methods of treating, preventing and inhibiting cancer metastasis and tumor formation” (Washington University, priority 2003, published 2007).
Bridge positions count the residues as written; N and C are the ends. Square brackets hold non-standard residues; d marks the D form. Peptide text beside a SMILES is read from it. Phe(4-CH2NH2) = NCc1ccc(C[C@H](N)C(=O)O)cc1; Thz(5,5-Me2) = CC1(C)SCN[C@@H]1C(=O)O; NMeR = CN[C@@H](CCCNC(=N)N)C(=O)O; 3Amb = NCc1cccc(C(=O)O)c1; dAbu = CC[C@@H](N)C(=O)O

Assays:
[1] = molecular target: platelet GPIIb/IIIa receptors (Homo sapiens, UniProt P05106+P08514); conditions: cited from earlier work
[2] = molecular target: activated platelet GPIIb/IIIa receptors (Homo sapiens, UniProt P05106+P08514); conditions: cited from earlier work; for affinity for activated versus resting platelet GPIIb/IIIa: resting vs activated form
[3] = molecular target: resting platelet GPIIb/IIIa receptors (Homo sapiens, UniProt P05106+P08514); conditions: resting form of GPIIb/IIIa; cited from earlier work
platelet aggregation = experiment: Platelet aggregation after in vivo oral administration (aggregometry from PRP); parameters: species or system mice; conditions: after an oral dose of 100 mg/kg
From the text: An activated αIIbβ3 receptor antagonist in β3^+/+ mice was utilized in examples showing the role of platelet β3 integrin in the protection from bone metastases seen in the β3^−/− mouse. […] However, those skilled in the art will recognize that additional activated αIIbβ3 receptor antagonists may be used in the methods, the efficacies of which may be determined using the protocols of the present disclosure. Additional protocols are available to those skilled in the art to determine the efficacy of other activated αIIbβ3 receptor antagonists. Such activated αIIb3 receptor antagonists are meant to be encompassed within the scope of the present invention.
(§1) C57BI6 mice were used to analyze metastasis antagonism. […] Blockade of platelet aggregation is complete at 30 minutes after oral gavage but persists for up to 10 hours. […] Thirty minutes after the first oral-gavage dose, mice were LV injected with B16 cells and evaluated for metastases 14 days later.

B16 melanoma cells = experiment: B16 LV injection metastasis model in β3+/+ mice; format: in vivo
Description: The activated αIIbβ3 receptor antagonist was tested based on its ability to diminish metastases in wild type mice. […] The mice were treated 30 minutes prior to the LV injection of 1×10^5 B16 cells, and then every 12 hours for 5 doses (2.5 days of treatment out of the 14 day experiment). 14/40 (35%) mice died from bleeding complications after the LV injection indicative of effective disruption of αIIbβ3 mediated platelet aggregation. 1/17 (6%) placebo treated mice died after the LV injection procedure. […] Placebo in DMSO carrier was also administered by oral gavage. Mice were evaluated 14 days after B16 injection for bone and visceral metastases.
Mice were anaesthetized followed by injection with 30 gauge needles of 1×10^5 B16 cells in 100 μl PBS into the left cardiac ventricle as previously described. Confirmation of correct insertion was established by pulsing geyser of blood in the syringe. After the injection mice were monitored daily for 14 days.
as §1

[4] = cited from earlier work

Chain of activated platelet GPIIb/IIIa receptors (P08514 32-887 limits assumed): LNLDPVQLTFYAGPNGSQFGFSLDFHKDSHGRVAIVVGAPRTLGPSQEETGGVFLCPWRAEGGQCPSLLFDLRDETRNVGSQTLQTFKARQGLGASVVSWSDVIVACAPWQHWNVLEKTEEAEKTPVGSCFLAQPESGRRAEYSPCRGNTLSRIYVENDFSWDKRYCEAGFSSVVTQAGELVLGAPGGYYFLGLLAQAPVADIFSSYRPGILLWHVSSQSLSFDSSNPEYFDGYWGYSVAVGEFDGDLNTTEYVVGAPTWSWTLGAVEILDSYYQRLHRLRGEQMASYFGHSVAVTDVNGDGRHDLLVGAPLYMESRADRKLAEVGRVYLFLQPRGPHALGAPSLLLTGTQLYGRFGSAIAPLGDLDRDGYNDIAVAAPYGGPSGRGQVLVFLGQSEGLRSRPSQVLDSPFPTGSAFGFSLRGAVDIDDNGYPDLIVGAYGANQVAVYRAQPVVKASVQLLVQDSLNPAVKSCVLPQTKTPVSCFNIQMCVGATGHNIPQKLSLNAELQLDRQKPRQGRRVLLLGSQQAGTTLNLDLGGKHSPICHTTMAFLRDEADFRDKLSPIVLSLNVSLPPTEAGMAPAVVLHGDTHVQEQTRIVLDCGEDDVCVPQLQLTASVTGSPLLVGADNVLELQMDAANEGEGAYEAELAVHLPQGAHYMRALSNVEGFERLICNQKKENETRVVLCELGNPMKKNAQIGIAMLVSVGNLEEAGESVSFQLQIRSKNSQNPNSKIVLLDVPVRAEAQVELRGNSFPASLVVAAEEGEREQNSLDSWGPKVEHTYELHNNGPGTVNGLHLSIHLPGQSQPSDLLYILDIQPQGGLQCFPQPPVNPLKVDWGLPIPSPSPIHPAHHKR
Chain of activated platelet GPIIb/IIIa receptors (P08514 891-1039 limits assumed): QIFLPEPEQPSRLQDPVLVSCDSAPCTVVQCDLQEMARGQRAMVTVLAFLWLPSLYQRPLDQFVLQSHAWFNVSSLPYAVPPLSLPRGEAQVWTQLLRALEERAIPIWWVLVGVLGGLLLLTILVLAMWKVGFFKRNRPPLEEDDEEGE
Chain of activated platelet GPIIb/IIIa receptors (P05106 27-788): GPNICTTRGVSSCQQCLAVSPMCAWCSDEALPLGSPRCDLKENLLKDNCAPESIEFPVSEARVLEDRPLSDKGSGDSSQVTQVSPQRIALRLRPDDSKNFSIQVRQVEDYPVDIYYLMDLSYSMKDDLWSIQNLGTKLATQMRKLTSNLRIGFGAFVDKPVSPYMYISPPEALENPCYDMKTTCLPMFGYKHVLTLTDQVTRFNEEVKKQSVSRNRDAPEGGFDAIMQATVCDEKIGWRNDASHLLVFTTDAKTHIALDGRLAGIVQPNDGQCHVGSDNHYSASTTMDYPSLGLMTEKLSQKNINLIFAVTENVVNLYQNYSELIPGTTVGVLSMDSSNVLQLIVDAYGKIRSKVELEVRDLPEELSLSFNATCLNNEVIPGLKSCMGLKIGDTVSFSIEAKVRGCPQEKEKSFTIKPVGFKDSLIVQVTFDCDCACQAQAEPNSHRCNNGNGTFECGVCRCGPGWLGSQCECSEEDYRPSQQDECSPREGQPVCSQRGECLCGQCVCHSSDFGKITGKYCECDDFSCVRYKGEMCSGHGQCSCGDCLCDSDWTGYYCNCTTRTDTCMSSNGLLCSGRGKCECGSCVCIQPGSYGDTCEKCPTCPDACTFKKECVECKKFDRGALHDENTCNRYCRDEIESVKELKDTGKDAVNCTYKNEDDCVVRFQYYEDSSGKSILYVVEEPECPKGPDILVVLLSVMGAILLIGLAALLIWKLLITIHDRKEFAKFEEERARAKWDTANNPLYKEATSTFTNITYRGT
Chain of platelet GPIIb/IIIa receptors (P08514 32-887 limits assumed): as the sequence (P08514 32-887 limits assumed) above
Chain of platelet GPIIb/IIIa receptors (P08514 891-1039 limits assumed): as the sequence (P08514 891-1039 limits assumed) above
Chain of platelet GPIIb/IIIa receptors (P05106 27-788): as the sequence (P05106 27-788) above
Chain of resting platelet GPIIb/IIIa receptors (P08514 32-887 limits assumed): as the sequence (P08514 32-887 limits assumed) above
Chain of resting platelet GPIIb/IIIa receptors (P08514 891-1039 limits assumed): as the sequence (P08514 891-1039 limits assumed) above
Chain of resting platelet GPIIb/IIIa receptors (P05106 27-788): as the sequence (P05106 27-788) above

In the case of C[C@H](CC(=O)O)NC(=O)CN1CCC[C@@H](CCC2CCNCC2)C1=O [L734217], the platelet dissociation rate [1] is given as “relatively fast”, the Kd ([2]; activated form of GPIIb/IIIa) is given as 5 nM and the “affinity for activated versus resting platelet GPIIb/IIIa” value [2] is given as “much higher affinity to the activated form”. For the same compound, the Kd [3] was 620 nM.

For CC[C@H]1NC(=O)c2cccc(c2)CNC(=O)[C@H](CC(=O)O)NC(=O)CNC(=O)[C@H](CCCN=C(N)N)N(C)C1=O.CS(=O)(=O)O [DMP728] (cyclo([NMeR]GD[3Amb][dAbu])), the platelet dissociation rate [1] is listed as “relatively fast” and the “affinity for activated versus resting platelet GPIIb/IIIa” value [2] is listed as “much higher affinity to the activated form”.

For CCCCOC(=O)N[C@@H](CNC(=O)C[C@H]1CC(c2ccc(C(=N)N)cc2)=NO1)C(=O)OC [roxifiban], the platelet dissociation rate [1] is listed as “relatively slow” and the “affinity for activated versus resting platelet GPIIb/IIIa” value [2] is listed as “comparable Kd values”.

For CCOC(=O)CCNC(=O)N1CCC2(CC1)CCN(c1ccc(C(=N)NO)cc1)C2=O [ML464], the “duration of disruption of platelet aggregation” value (platelet aggregation) was “up to 10 hours”, the “surviving mice with bone metastases” value (B16 melanoma cells; 100 mg/Kg oral every 12 hours for 5 doses, 14 days after B16 LV injection, vehicle 76%, P=0.0013) was 23% and the “visceral metastases versus placebo” value (B16 melanoma cells; 100 mg/Kg oral every 12 hours for 5 doses, day 14, P=0.0125) was “decrease”. For the same compound, the “mice died from bleeding complications after the LV injection” value (B16 melanoma cells; 100 mg/Kg oral gavage, 30 minutes prior to LV injection, 14/40 mice) was 35%, the “number and size of visceral metastases versus placebo group” value (B16 melanoma cells; mice that did develop metastases, tumor sizes not measured) was “reduced” and the “metastases in inhibitor treated mice compared to placebo treated mice” value (B16 melanoma cells; β3+/+ mice, FIG. 5(b)) was “decrease of metastases”.

For CC(=O)N[C@H]1CSSC[C@@H](C(=O)O)NC(=O)[C@H](CC(=O)O)NC(=O)CNC(=O)[C@H](Cc2ccc(CN)cc2)NC(=O)[C@H]2N(CSC2(C)C)C(=O)[C@@H](CC(N)=O)NC1=O [MK852] (Ac-C[dN][Thz(5,5-Me2)][Phe(4-CH2NH2)]GDC-OH; disulfide 1-7), the platelet dissociation rate [1] is given as “relatively fast” and the “affinity for activated versus resting platelet GPIIb/IIIa” value [2] is given as “much higher affinity to the activated form”.

In the case of “Abciximab: Fab fragment of the chimeric human-murine monoclonal antibody 7E3”, the “human antibody response to the chimeric antibody, patients” value [4] is given as “approximately 6%”.
